Earlier results, collected in patent publication US9504677B2, “Substituted N-aryl pyridinones” (Auspex Pharmaceuticals, Inc., priority 2007, dated 2016).

Tests used:
[1] = humans

half-life [1]: very short
Compound: Cc1ccc(=O)n(-c2ccccc2)c1 [Pirfenidone, 5-methyl-1-phenyl-1H-pyridin-2-one]
DNA synthesis (myometrial cells): inhibits DNA synthesis | efficacy in rodent disease models (rodent disease models): effective | DNA synthesis (leiomyoma cells): inhibits DNA synthesis
